USRE48461E1, “Modulation of androgen receptor expression” (Ionis Pharmaceuticals, Inc., priority 2012, dated 2021)
Oligonucleotides are written 5' to 3', each unit as a sugar letter and its base; * is a phosphorothioate linkage, no mark a phosphodiester; rarer units and linkages stand in square brackets, end groups in braces. Plain capitals give the bases only. k = constrained ethyl (cEt); [5mC] = 5-methylcytosine; d = 2'-deoxy (DNA)

Experiments:
AR mRNA [1] = assay: Dose-dependent antisense inhibition of human AR in HuVEC cells (electroporation, qRT-PCR RTS3559, IC50); assay type: cell-based; conditions: HuVEC
How it was run: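 HuVEC cells dosed with antisense oligonucleotides by electroporation and treated approximately 16 hours. AR mRNA quantified by real-time qPCR with primer probe set RTS3559 and normalised to total RNA by RIBOGREEN; IC50 from dose-response.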

AR mRNA [2] = assay: Antisense inhibition of human AR in HuVEC cells, single concentration (electroporation, qRT-PCR RTS3559); assay type: cell-based
How it was run: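 AR mRNA levels were measured with human primer-probe set RTS3559 and adjusted for total RNA (RIBOGREEN). Cells were HuVEC, with each antisense oligonucleotide delivered by electroporation at one concentration.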

[3] = Table 33, electroporation, approximately 16 hours
[4] = 500 nM ASO, electroporation, ~24 h, Table 1
[5] = Table 32, electroporation, approximately 16 hours
[6] = Table 30, electroporation, approximately 16 hours
[7] = Table 31, electroporation, approximately 16 hours
[8] = Table 36, electroporation, approximately 16 hours

## 583919 (kG*kT*kA*dG*dT*d[5mC]*dG*d[5mC]*dG*dA*d[5mC]*dT*d[5mC]*kT*kG*kG; antisense) [compound 583919]
AR mRNA [1]; [3]
  percent inhibition of AR, 46.9 nM: 27%
  percent inhibition of AR, 187.5 nM: 60%
  percent inhibition of AR, 750.0 nM: 85%
  percent inhibition of AR, 3000.0 nM: 91%
  IC50: 140 nM
AR mRNA [2]; Table 21, 500 nM oligonucleotide, electroporation, approximately 24 hours, relative to untreated control
  % inhibition: 55%

## 549338 (kG*kG*k[5mC]*dT*dG*dT*dG*dA*dT*dG*dA*dT*dG*k[5mC]*kG*kG; antisense) [compound 549338]
AR mRNA [1]; 55.6 nM, ~16 h, Table 4
  percent inhibition of AR: 32%
AR mRNA [1]; 166.7 nM, ~16 h, Table 4
  percent inhibition of AR: 47%
AR mRNA [1]; 500.0 nM, ~16 h, Table 4
  percent inhibition of AR: 67%
AR mRNA [1]; 1500.0 nM, ~16 h, Table 4
  percent inhibition of AR: 78%
AR mRNA [1]; ~16 h, Table 4
  IC50: 154 nM
AR mRNA [2]; [4]
  % inhibition: 83%

## 583865 (kT*kT*k[5mC]*dA*dG*dT*dG*d[5mC]*dT*d[5mC]*dT*dT*dG*k[5mC]*k[5mC]*kT; antisense) [compound 583865]
AR mRNA [1]; [5]
  percent inhibition of AR, 46.9 nM: 33%
  percent inhibition of AR, 187.5 nM: 42%
  percent inhibition of AR, 750.0 nM: 68%
  percent inhibition of AR, 3000.0 nM: 85%
  IC50: 190 nM
AR mRNA [2]; Table 20, 500 nM oligonucleotide, electroporation, approximately 24 hours, relative to untreated control
  % inhibition: 45%

## 549459 (kA*kT*kG*dG*dT*dT*dG*dA*dT*dT*dT*dA*dA*kT*kG*kG) [compound 549459]
AR mRNA [1]; 31.25 nM, ~16 h, Table 6
  percent inhibition of AR: 16%
AR mRNA [1]; 55.6 nM, ~16 h, Table 4
  percent inhibition of AR: 61%
AR mRNA [1]; 62.5 nM, ~16 h, Table 6
  percent inhibition of AR: 23%
AR mRNA [1]; 125.0 nM, ~16 h, Table 6
  percent inhibition of AR: 50%
AR mRNA [1]; 166.7 nM, ~16 h, Table 4
  percent inhibition of AR: 90%
AR mRNA [1]; 500.0 nM, ~16 h, Table 4
  percent inhibition of AR: 94%
AR mRNA [1]; 500.0 nM, ~16 h, Table 6
  percent inhibition of AR: 85%
AR mRNA [1]; 1000.0 nM, ~16 h, Table 6
  percent inhibition of AR: 92%
AR mRNA [1]; 1500.0 nM, ~16 h, Table 4
  percent inhibition of AR: 97%
AR mRNA [1]; ~16 h, Table 4
  IC50: 18 nM
AR mRNA [1]; ~16 h, Table 6
  IC50: 100 nM
AR mRNA [2]; 500 nM ASO, electroporation, ~24 h, Table 2
  % inhibition: 96%
AR mRNA [2]; 500 nM ASO, ~24 h, Table 5
  % inhibition: 92%

## 583709 (antisense kG*k[5mC]*kT*dT*dG*dG*d[5mC]*dT*dG*dA*dA*dT*d[5mC]*kT*kT*k[5mC]) [compound 583709]
AR mRNA [1]; [6]
  percent inhibition of AR, 46.9 nM: 8%
  percent inhibition of AR, 187.5 nM: 50%
  percent inhibition of AR, 750.0 nM: 70%
  percent inhibition of AR, 3000.0 nM: 84%
  IC50: 290 nM
AR mRNA [2]; 500 nM ASO, ~24 h, Table 18
  % inhibition: 39%

## 549383 (k[5mC]*k[5mC]*kA*dA*dA*d[5mC]*dG*d[5mC]*dA*dT*dG*dT*d[5mC]*k[5mC]*k[5mC]*k[5mC]; antisense) [compound 549383]
AR mRNA [1]; 55.6 nM, ~16 h, Table 3
  percent inhibition of AR: 10%
AR mRNA [1]; 166.7 nM, ~16 h, Table 3
  percent inhibition of AR: 34%
AR mRNA [1]; 500.0 nM, ~16 h, Table 3
  percent inhibition of AR: 75%
AR mRNA [1]; 1500.0 nM, ~16 h, Table 3
  percent inhibition of AR: 88%
AR mRNA [1]; ~16 h, Table 3
  IC50: 270 nM
AR mRNA [2]; [4]
  % inhibition: 88%

## 583795 (antisense kT*kG*k[5mC]*dT*dG*dT*dT*dG*d[5mC]*dT*dG*dA*dA*kG*kG*kA) [compound 583795]
AR mRNA [1]; [7]
  percent inhibition of AR, 46.9 nM: 37%
  percent inhibition of AR, 187.5 nM: 61%
  percent inhibition of AR, 750.0 nM: 83%
  percent inhibition of AR, 3000.0 nM: 90%
  IC50: 90 nM
AR mRNA [2]; Table 19, 500 nM oligonucleotide, electroporation, approximately 24 hours, relative to untreated control
  % inhibition: 63%

## 584263 (kT*kA*kG*dG*dG*dT*dT*dT*dG*dG*dT*d[5mC]*dA*kG*kA*kA; antisense) [compound 584263]
AR mRNA [1]; [8]
  percent inhibition of AR, 46.9 nM: 9%
  percent inhibition of AR, 187.5 nM: 24%
  percent inhibition of AR, 750.0 nM: 67%
  percent inhibition of AR, 3000.0 nM: 90%
  IC50: 340 nM
AR mRNA [2]; Table 25, 1,000 nM oligonucleotide, electroporation, approximately 24 hours, relative to untreated control
  % inhibition: 56%

## 549334 (k[5mC]*kA*k[5mC]*d[5mC]*dT*dG*d[5mC]*dG*dG*dG*dA*dA*dG*k[5mC]*kT*k[5mC]; antisense) [compound 549334]
AR mRNA [1]; 55.6 nM, ~16 h, Table 4
  percent inhibition of AR: 29%
AR mRNA [1]; 166.7 nM, ~16 h, Table 4
  percent inhibition of AR: 46%
AR mRNA [1]; 500.0 nM, ~16 h, Table 4
  percent inhibition of AR: 63%
AR mRNA [1]; 1500.0 nM, ~16 h, Table 4
  percent inhibition of AR: 72%
AR mRNA [1]; ~16 h, Table 4
  IC50: 253 nM
AR mRNA [2]; [4]
  % inhibition: 83%
